In US20100063466A1, “ABSORBENT ARTICLE” (SCA Hygiene Products AB, priority 2006, published 2010):

Legend:
[1] = Measurement of water activity of salt solutions; format: physicochemical; conditions: different concentrations of salt in Elga-H2O; FIG. 8
Procedure: Water activity is measured as follows. The water activity meter is from Aqua Lab, Model Series 3 TE, […]. (U.S. Pat. No. 5,816,704). A specimen, a solution with different additions of different salts in Elga-H2O or synthetic urine, test liquid 2. was placed in a plastic cup. The quantity is not critical, but it is important that the bottom surface of the plastic cup is covered. The specimen is moved into the test chamber, which is closed, and the measurement commences. When the test value is stable, a green light flashes and the water activity can be read off digitally. The salts that were tested were: NaCl, KCl, NH4Cl, KC2H3O2 (K acetate), Na C2H3O2 (Na acetate).
The water activity was measured in Elga-H2O (USF Elga, distilled water) and synthetic urine, test liquid 2.
The water activity was measured according to method 4, but with different concentrations of salt in Elga-H2O.

E. faecalis = conditions: FIG. 4
Description: (§1) Absorbent test specimens were punched out from an absorbent core produced in a test plant. A standard method for mat-forming of a core was used during production of the core in the test plant. The absorbent test specimen included a homogeneous mixture of fluff pulp, 0.72 g Weyerhauser pulp (NB 416) and 0.48 g of superabsorbent polymer (SAP) (Degussa SXM9135). The absorbent core, was compressed to a bulk of around 8-10 cm^3/g. The size of the punched-out test items was 5 cm in diameter, the weight was about 1.2 g.
(§2) 16 ml (corresponding to a maximum absorption capacity of a test specimen according to method 1) of test liquid 1 containing the bacteria were added to a test specimen placed in plastic tubs, and a lid was fitted on the tubs. The tubs were turned upside down and incubated in a warm cabinet at 35° C. After incubation for 0, 6 and 12 hours, the test samples were placed in a plastic bag with peptone water and the content was homogenized (agitated and worked up) in a stomacker for 3 minutes. The homogenate was diluted in dilution tubes with peptone water and a microbiological culture was spread on agar plates. Slanetz Bartley agar was used for E. faecalis, and Drigalski agar for E. coli and P. mirabilis. The specimens were incubated at 35° C. for 1-2 days before the colonies were counted and the log CFU/ml calculated. Control tests were also carried out with absorbent cores without NaCl.
(§3) Bacteria were cultured in nutrient broth and diluted to the desired concentration of about Log 3.3 in test liquid 1 (method 4). Absorbent test specimens were produced according to method 1. 29 (high), 22 (medium) and 12 (low) % by weight NaCl (% dry) were added to the core, corresponding to 3 (high), 2 (medium) and 1 (low) % by weight (% wet) in the wet product. This proportion also applies to the other examples. The bacterial growth was measured according to method 3.

P. mirabilis = conditions: FIG. 4
Description: as §1, §2, §3

E. coli = conditions: FIG. 4
Description: as §1, §2, §3

Proteus mirabilis = conditions: 29% by weight of NaCl (% dry); after 6 and 8 hours; FIG. 5
Description: as §1
(§4) Absorbent test specimens were produced according to method 1.
as §4

[2] = 3% added salt (% wet), NaCl high, after 12 hours, 35° C, test liquid 1
[3] = 29, 22 and 12 % by weight NaCl (% dry), after 6 and 12 hours

Cl.N [NH4Cl]
water activity as the concentrations of salt increase [1]: drops

CC(=O)[O-].[Na+] [Na acetate]
water activity as the concentrations of salt increase [1]: drops

[Cl-].[Na+] [NaCl]
water activity as the concentrations of salt increase [1]: drops
growth of E. faecalis (E. faecalis; [2]): < 5.5 log CFU/ml
growth of E. faecalis compared with the control tests (E. faecalis; [3]): lower
growth of P. mirabilis (P. mirabilis; [2]): < 5.5 log CFU/ml
growth of P. mirabilis compared with the control tests (P. mirabilis; [3]): lower
growth of E. coli (E. coli; [2]): < 5.5 log CFU/ml
growth of E. coli compared with the control tests (E. coli; [3]): lower
development of NH3, ranking among specimens (Proteus mirabilis): lowest
